# Results as given in patent US9073940B2, “Tricyclic pyrazol amine derivatives” (MERCK SERONO SA, priority 2009, dated 2015).
# Tested on: 4 PI3K isoforms (Human recombinant GST-PI3K)
# Test: PI3K scintillation proximity assay, best IC50 obtained with the four isoforms (alpha, beta, delta, gamma)
# Type: biochemical
# Details: best IC50 obtained with the four isoforms of PI3K; read-out: Best potency measured on the 4 PI3K isoforms
row,SMILES,IC50 [nM]
1,"CC(C)(C)OC(=O)N1CCC(n2nc(C(=O)N3CCOCC3)c3c2-c2ccccc2S(=O)(=O)C3)CC1 [Example 119, tert-Butyl 4-[3-(morpholin-4-ylcarbonyl)-5,5-dioxidothiochromeno[4,3-c]pyrazol-1(4H)-yl]piperidine-1-carboxylate]",808
2,CC(C)(C)OC(=O)N1CCCC(n2nc(C(=O)N3CCOCC3)c3c2-c2ccccc2S(=O)(=O)C3)C1 (stereo not shown) [Example 120],1540
3,"O=C(c1nn(C2CCN(CCO)CC2)c2c1CS(=O)(=O)c1ccccc1-2)N1CCOCC1 [Example 121, 2-{4-[3-(Morpholin-4-ylcarbonyl)-5,5-dioxidothiochromeno[4,3-c]pyrazol-1 (4H)-yl]piperidin-1-yl}ethanol]",1760
4,O=C(c1nn(-c2ccccc2)c2c1CS(=O)(=O)c1cc(Br)ccc1-2)N1CCOCC1 [Example 122],904
5,"CS(=O)(=O)N1CCC(n2nc(C(=O)N3CCOCC3)c3c2-c2ccccc2S(=O)(=O)C3)CC1 [Example 123, 1-[1-(Methylsulfonyl)piperidin-4-yl]-3-(morpholin-4-ylcarbonyl)-1,4-dihydrothiochromeno[4,3-c]pyrazole 5,5-dioxide]",2100
6,"COCCNC(=O)c1cccc(-n2nc(C(=O)N3CCOCC3)c3c2-c2ccccc2S(=O)(=O)C3)c1 [Example 126, N-(2-Methoxyethyl)-3-[3-(morpholin-4-ylcarbonyl)-5,5-dioxidothiochromeno[4,3-c]pyrazol-1 (4H)-yl]benzamide]",1110
7,"O=C(c1nn(C2CCCCC2)c2c1CS(=O)(=O)c1cc(Br)ccc1-2)N1CCOCC1 [Example 128, 7-Bromo-1-cyclohexyl-3-(morpholin-4-ylcarbonyl)-1,4-dihydrothiochromeno[4,3-c]pyrazole 5,5-dioxide]",691
8,"Cc1ccc2c(c1)-c1c(c(C(=O)N3CCOCC3)nn1-c1ccccc1)CS2(=O)=O [Example 129, 8-Methyl-3-(morpholin-4-ylcarbonyl)-1-phenyl-1,4-dihydrothiochromeno[4,3-c]pyrazole 5,5-dioxide]",1500
9,"CS(=O)(=O)c1ccc(-n2nc(C(=O)N3CCOCC3)c3c2-c2ccccc2S(=O)(=O)C3)cc1 [Example 130, 1-[4-(Methylsulfonyl)phenyl]-3-(morpholin-4-ylcarbonyl)-1,4-dihydrothiochromeno[4,3-c]pyrazole 5,5-dioxide]",4520
10,"COc1ccc(-n2nc(C(=O)N3CCOCC3)c3c2-c2ccccc2S(=O)(=O)C3)cn1 [Example 131, 1-(6-Methoxypyridin-3-yl)-3-(morpholin-4-ylcarbonyl)-1,4-dihydrothiochromeno[4,3-c]pyrazole 5,5-dioxide]",2200
11,"O=C(c1nn(C2CCCN(CCO)C2)c2c1CS(=O)(=O)c1ccccc1-2)N1CCOCC1 (stereo not shown) [Example 134, 2-{3-[3-(Morpholin-4-ylcarbonyl)-5,5-dioxidothiochromeno[4,3-c]pyrazol-1 (4H)-yl]piperidin-1-yl}ethanol]",815
12,"CS(=O)(=O)N1CCCC(n2nc(C(=O)N3CCOCC3)c3c2-c2ccccc2S(=O)(=O)C3)C1 (stereo not shown) [Example 135, 1[1-(Methylsulfonyl)piperidin-3-yl]-3-(morpholin-4-ylcarbonyl)-1,4-dihydrothiochromeno[4,3-c]pyrazole 5,5-dioxide]",994
13,"CS(=O)(=O)c1cccc(-n2nc(C(=O)N3CCOCC3)c3c2-c2ccccc2S(=O)(=O)C3)c1 [Example 138, 1-[3-(Methylsulfonyl)phenyl]-3-(morpholin-4-ylcarbonyl)-1,4-dihydrothiochromeno[4,3-c]pyrazole 5,5-dioxide]",2560
14,"Cc1ccc2c(c1)S(=O)(=O)Cc1c(C(=O)N3CCOCC3)nn(-c3ccccc3)c1-2 [Example 139, 7-Methyl-3-(morpholin-4-ylcarbonyl)-1-phenyl-1,4-dihydrothiochromeno[4,3-c]pyrazole 5,5-dioxide]",1840
15,"NCCCC1c2c(C(=O)N3CCOCC3)nn(-c3ccccc3)c2-c2ccccc2S1(=O)=O (stereo not shown) [Example 140, 3-[3-(Morpholin-4-ylcarbonyl)-5,5-dioxido-1-phenyl-1,4-dihydrothiochromeno[4,3-c]pyrazol-4-yl]propan-1-amine]",4520
16,"O=C(c1nn(-c2cccc(CO)c2)c2c1CS(=O)(=O)c1ccccc1-2)N1CCOCC1 [Example 141, {3-[3-(Morpholin-4-ylcarbonyl)-5,5-dioxidothiochromeno[4,3-c]pyrazol-1(4H)-yl]phenyl}methanol]",2250
17,"O=C(NC1CCOCC1)c1cccc(-n2nc(C(=O)N3CCOCC3)c3c2-c2ccccc2S(=O)(=O)C3)c1 [Example 148, 3-[3-(Morpholin-4-ylcarbonyl)-5,5-dioxidothiochromeno[4,3-c]pyrazol-1(4H)-yl]-N-(tetrahydro-2H-pyran-4-yl)benzamide]",1260
18,"O=C(Nc1cccnc1)c1cccc(-n2nc(C(=O)N3CCOCC3)c3c2-c2ccccc2S(=O)(=O)C3)c1 [Example 149, 3-[3-(Morpholin-4-ylcarbonyl)-5,5-dioxidothiochromeno[4,3-c]pyrazol-1(4H)-yl]-N-pyridin-3-ylbenzamide]",926
19,"O=C(c1nn(-c2ccccc2)c2c1CS(=O)(=O)c1ccncc1-2)N1CCOCC1 [Example 150, 3-(Morpholin-4-ylcarbonyl)-1-phenyl-1,4-dihydropyrazolo[3′,4′:4,5]thiopyrano[3,2-c]pyridine 5,5-dioxide]",3050
20,"CN(C)c1ccc2c(c1)S(=O)(=O)Cc1c(C(=O)N3CCOCC3)nn(-c3ccccc3)c1-2 [Example 152, N,N-Dimethyl-3-(morpholin-4-ylcarbonyl)-1-phenyl-1,4-dihydrothiochromeno[4,3-c]pyrazol-7-amine 5,5-dioxide]",5020
21,"O=C(c1nn(-c2ccc(CO)cc2)c2c1CS(=O)(=O)c1ccccc1-2)N1CCOCC1 [Example 153, {4-[3-(Morpholin-4-ylcarbonyl)-5,5-dioxidothiochromeno[4,3-c]pyrazol-1(4H)-yl]phenyl}methanol]",1060

# Second part, the molecule after the results:
row,IC50 [nM],SMILES
1,253,"CN1CCN(C(=O)c2cccc(-n3nc(C(=O)N4CCOCC4)c4c3-c3ccccc3S(=O)(=O)C4)c2)CC1 [Example 124, 1-{3-[(4-Methylpiperazin-1-yl)carbonyl]phenyl}-3-(morpholin-4-ylcarbonyl)-1,4-dihydrothiochromeno[4,3-c]pyrazole 5,5-dioxide]"
2,182,"O=C(c1cccc(-n2nc(C(=O)N3CCOCC3)c3c2-c2ccccc2S(=O)(=O)C3)c1)N1CCCCC1 [Example 125, 3-(Morpholin-4-ylcarbonyl)-1-[3-(piperidin-1-ylcarbonyl)phenyl]-1,4-dihydrothiochromeno[4,3-c]pyrazole 5,5-dioxide]"
3,426,"CC1CCC(n2nc(C(=O)N3CCOCC3)c3c2-c2ccccc2S(=O)(=O)C3)CC1 (stereo not shown) [Example 127, 1-(4-Methylcyclohexyl)-3-(morpholin-4-ylcarbonyl)-1,4-dihydrothiochromeno[4,3-c]pyrazole 5,5-dioxide]"
4,530,"O=C(c1nn(-c2ccccc2)c2c1CS(=O)(=O)c1ncccc1-2)N1CCOCC1 [Example 132, 3-(Morpholin-4-ylcarbonyl)-1-phenyl-1,4-dihydropyrazolo[3′,4′:4,5]thiopyrano[2,3-b]pyridine 5,5-dioxide]"
5,188,"COCCN1CCCC(n2nc(C(=O)N3CCOCC3)c3c2-c2ccccc2S(=O)(=O)C3)C1 (stereo not shown) [Example 133, 1-[1-(2-Methoxyethyl)piperidin-3-yl]-3-(morpholin-4-ylcarbonyl)-1,4-dihydrothiochromeno[4,3-c]pyrazole 5,5-dioxide]"
6,302,"COC1CCN(C(=O)c2cccc(-n3nc(C(=O)N4CCOCC4)c4c3-c3ccccc3S(=O)(=O)C4)c2)CC1 [Example 142, 1-{3-[(4-Methoxypiperidin-1-yl)carbonyl]phenyl}-3-(morpholin-4-ylcarbonyl)-1,4-dihydrothiochromeno[4,3-c]pyrazole 5,5-dioxide]"
7,371,"O=C(c1cccc(-n2nc(C(=O)N3CCOCC3)c3c2-c2ccccc2S(=O)(=O)C3)c1)N1CCC(O)CC1 [Example 143, 1-{3-[3-(Morpholin-4-ylcarbonyl)-5,5-dioxidothiochromeno[4,3-c]pyrazol-1 (4H)-yl]benzoyl}piperidin-4-ol]"
8,348,"O=C(c1cccc(-n2nc(C(=O)N3CCOCC3)c3c2-c2ccccc2S(=O)(=O)C3)c1)N1CCCC(O)C1 (stereo not shown) [Example 144, 1-{3-[3-(Morpholin-4-ylcarbonyl)-5,5-dioxidothiochromeno[4,3-c]pyrazol-1 (4H)-yl]benzoyl}piperidin-3-ol]"
9,502,"O=C(c1cccc(-n2nc(C(=O)N3CCOCC3)c3c2-c2ccccc2S(=O)(=O)C3)c1)N1CCCC(CO)C1 (stereo not shown) [Example 145, (1-{3-[3-(Morpholin-4-ylcarbonyl)-5,5-dioxidothiochromeno[4,3-c]pyrazol-1 (4H)-yl]benzoyl}piperidin-3-yl)methanol]"
10,319,"O=C(c1cccc(-n2nc(C(=O)N3CCOCC3)c3c2-c2ccccc2S(=O)(=O)C3)c1)N1CCS(=O)(=O)CC1 [Example 146, 1-{3-[(1,1-Dioxidothiomorpholin-4-yl)carbonyl]phenyl}-3-(morpholin-4-ylcarbonyl)-1,4-dihydrothiochromeno[4,3-c]pyrazole 5,5-dioxide]"
11,274,"O=C(c1ccc(-n2nc(C(=O)N3CCOCC3)c3c2-c2ccccc2S(=O)(=O)C3)cc1)N1CCOCC1 [Example 147, 3-(Morpholin-4-ylcarbonyl)-1-[4-(morpholin-4-ylcarbonyl)phenyl]-1,4-dihydrothiochromeno[4,3-c]pyrazole 5,5-dioxide]"
12,238,"O=C(c1ccc(-n2nc(C(=O)N3CCOCC3)c3c2-c2ccccc2S(=O)(=O)C3)cc1)N1CCCCC1 [Example 151, 3-(Morpholin-4-ylcarbonyl)-1-[4-(piperidin-1-ylcarbonyl)phenyl]-1,4-dihydrothiochromeno[4,3-c]pyrazole 5,5-dioxide]"
13,673,"O=C(c1nn(-c2cccc(N3CCOCC3)c2)c2c1CS(=O)(=O)c1ccccc1-2)N1CCOCC1 [Example 154, 3-(Morpholin-4-ylcarbonyl)-1-(3-morpholin-4-ylphenyl)-1,4-dihydrothiochromeno[4,3-c]pyrazole 5,5-dioxide]"
